Measurements taken from the supplement of paper PMC10307832.

Legend:
Experiment in all cases: relative viability (nuclei count vs DMSO), 5 days (fraction); higher = more cells survive
[1] = compound: O=C(CCCCCCNC(=O)c1cnc(N(c2ccccc2)c2ccccc2)nc1)NO [Ricolinostat] + CC1(C)CCC(c2ccc(Cl)cc2)=C(CN2CCN(c3ccc(C(=O)NS(=O)(=O)c4ccc(N[C@H](CCN5CCOCC5)CSc5ccccc5)c(S(=O)(=O)C(F)(F)F)c4)cc3)CC2)C1 [Navitoclax] (partner 0.5 µM)
How it was run: (§1)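 Relative viability was taken as the ratio of nuclei in treated wells to nuclei in vehicle wells. Lung cancer cell lines in 1536-well plates received compounds by pin tool one day after seeding, either one drug alone or a fixed anchor-drug dose plus five library-drug doses (not always all listed) in √10 steps. Nuclei were counted on 4× images after 5 days of treatment, and values are medians of duplicate plates.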

[2] = compound: C1=CC=C(C(=C1)C2=CC=C(C=C2)C3=CSC4=C3C(=C(C(=O)N4)C#N)O)O + Cc1nc(NC(=O)N2CCC[C@H]2C(N)=O)sc1-c1ccnc(C(C)(C)C(F)(F)F)c1 [Alpelisib] (partner 2 µM)
How it was run: as §1

TGX 221 + Tozasertib = compound: CC1=CN2C(=O)C=C(N=C2C(=C1)C(C)NC3=CC=CC=C3)N4CCOCC4 [TGX 221] + Cc1cc(Nc2cc(N3CCN(C)CC3)nc(Sc3ccc(NC(=O)C4CC4)cc3)n2)n[nH]1 [Tozasertib] (partner 0.1 µM)
How it was run: as §1

Ricolinostat + AZD7762 = compound: O=C(CCCCCCNC(=O)c1cnc(N(c2ccccc2)c2ccccc2)nc1)NO [Ricolinostat] + NC(=O)Nc1cc(-c2cccc(F)c2)sc1C(=O)N[C@H]1CCCNC1 [AZD7762] (partner 0.2 µM)
How it was run: as §1

Cell Line	relative viability ([1]; first compound 0.08 µM)	relative viability ([1]; first compound 0.253 µM)	relative viability ([1]; first compound 0.8 µM)	relative viability ([1]; first compound 2.53 µM)	relative viability ([2]; first compound 0.08 µM)	relative viability ([2]; first compound 0.253 µM)	relative viability ([2]; first compound 0.8 µM)	relative viability ([2]; first compound 2.53 µM)	relative viability ([2]; first compound 8 µM)	relative viability (TGX 221 + Tozasertib; first compound 0.08 µM)	relative viability (TGX 221 + Tozasertib; first compound 0.253 µM)	relative viability (TGX 221 + Tozasertib; first compound 0.8 µM)	relative viability (TGX 221 + Tozasertib; first compound 2.53 µM)	relative viability (TGX 221 + Tozasertib; first compound 8 µM)	relative viability (Ricolinostat + AZD7762; first compound 0.08 µM)	relative viability (Ricolinostat + AZD7762; first compound 0.253 µM)	relative viability (Ricolinostat + AZD7762; first compound 0.8 µM)	relative viability (Ricolinostat + AZD7762; first compound 2.53 µM)
201T	1.21	1.16	1.23	1.24	1.08	1.03	1.01	1.01	1.08	0.915	0.933	0.955	0.833	0.808	0.607	0.657	0.645	0.541
A549	1.07	1.18	1.1	1.21	0.733	1.14	0.908	0.707	0.604	–	–	–	–	–	–	–	–	–
A-427	0.861	0.906	0.89	0.754	1.08	1.13	1.13	1.11	1.12	0.194	0.213	0.211	0.197	0.208	0.606	0.708	0.518	0.507
ABC-1	–	–	–	–	1.09	1.08	1.08	0.878	1.01	0.192	0.157	0.203	0.188	0.161	0.945	0.788	0.748	0.617
BEN	0.0553	0.084	0.0569	0.0652	0.828	1.11	0.918	1.27	0.756	0.51	0.505	0.489	0.473	0.496	0.534	0.754	0.559	0.576
CAL-12T	1.04	1.01	1.01	1.11	–	1.05	0.989	1.2	0.861	0.324	0.329	0.322	0.314	0.2	0.496	0.602	0.56	0.489
COR-L23	0.943	1.07	0.978	0.511	0.832	0.998	0.702	0.92	0.63	0.168	0.222	0.187	0.164	0.179	–	–	–	–
COR-L 105	0.688	0.833	0.828	0.722	0.859	1.04	0.93	0.802	0.953	0.412	0.418	0.309	0.395	0.323	–	–	–	–
Calu-6	0.801	0.852	0.803	0.783	1.15	0.993	1.11	1.01	1.09	–	–	–	–	–	–	–	–	–
ChaGo-K-1	1.11	1.11	0.888	0.953	–	–	–	–	–	0.22	0.202	0.216	0.219	0.191	0.842	0.901	0.862	0.798
EBC-1	0.375	0.358	0.304	0.172	0.885	0.877	0.721	0.865	0.712	–	–	–	–	–	–	–	–	–
EKVX	–	0.805	0.842	1.02	0.786	0.995	0.838	0.953	0.851	0.381	0.343	0.329	0.317	0.272	0.673	0.732	0.654	0.487
EMC-BAC-2	1.04	1.09	1.2	1.2	0.711	0.73	0.748	0.821	0.697	0.255	0.318	0.296	0.307	0.275	1.01	1.03	0.968	0.557
EPLC-272H	–	0.784	0.992	0.631	–	1.06	0.978	0.977	0.76	0.187	0.275	0.282	0.186	0.138	–	0.194	0.178	0.141
H3255	0.537	0.495	0.483	0.483	0.799	0.778	0.68	0.687	0.563	0.449	0.529	0.692	0.563	0.613	0.717	0.759	0.75	0.849
HARA	1.1	1.1	1.09	1.11	–	0.84	0.796	0.932	0.655	0.147	0.105	0.123	0.1	0.0992	0.35	0.256	0.184	0.236
HCC-15	0.649	0.75	0.767	0.616	0.976	1.03	0.943	1.01	0.819	0.438	0.463	0.407	0.323	0.237	1.09	1.11	1.37	1.29
HCC-44	0.861	1.04	0.985	0.93	0.661	0.796	0.767	0.86	0.663	–	0.947	1.03	0.92	0.695	1.05	0.972	0.993	1.05
HCC-78	–	0.771	0.561	0.435	0.286	0.485	0.296	0.29	0.349	0.344	0.432	0.371	0.268	0.347	–	0.718	0.453	0.2
HCC-366	0.831	0.957	1.06	0.978	0.506	0.491	0.431	0.441	0.367	0.0834	0.113	0.283	0.0517	0.0636	0.266	0.27	0.264	0.172
HCC-827	0.95	1.02	1.01	0.909	1.09	1.01	0.993	1.06	1.06	0.414	0.436	0.424	0.401	0.349	0.171	0.223	0.167	0.219
HOP-62	0.887	1.01	1.03	1.08	0.905	0.774	0.709	1.05	0.573	0.372	0.416	0.34	0.387	0.316	0.352	0.521	0.53	0.277
IA-LM	0.802	0.626	0.747	0.603	0.549	0.879	0.626	0.75	0.374	–	–	–	–	–	–	–	–	–

Cell Line	relative viability ([1]; first compound 0.08 µM)	relative viability ([1]; first compound 0.253 µM)	relative viability ([1]; first compound 0.8 µM)	relative viability ([1]; first compound 2.53 µM)	relative viability ([2]; first compound 0.08 µM)	relative viability ([2]; first compound 0.253 µM)	relative viability ([2]; first compound 0.8 µM)	relative viability ([2]; first compound 2.53 µM)	relative viability ([2]; first compound 8 µM)	relative viability (TGX 221 + Tozasertib; first compound 0.08 µM)	relative viability (TGX 221 + Tozasertib; first compound 0.253 µM)	relative viability (TGX 221 + Tozasertib; first compound 0.8 µM)	relative viability (TGX 221 + Tozasertib; first compound 2.53 µM)	relative viability (TGX 221 + Tozasertib; first compound 8 µM)	relative viability (Ricolinostat + AZD7762; first compound 0.08 µM)	relative viability (Ricolinostat + AZD7762; first compound 0.253 µM)	relative viability (Ricolinostat + AZD7762; first compound 0.8 µM)	relative viability (Ricolinostat + AZD7762; first compound 2.53 µM)
LC-2-ad	0.535	0.485	0.506	0.334	0.803	0.943	1	1	0.965	0.451	0.479	0.454	0.402	0.396	0.842	0.883	0.82	0.745
LCLC-97TM1	0.41	0.431	0.485	0.357	0.251	0.346	0.265	0.225	0.173	0.214	0.179	0.191	0.239	0.143	–	0.378	0.265	0.34
LCLC-103H	–	–	–	–	0.948	0.881	1.05	0.981	0.869	0.409	0.466	0.465	0.434	0.354	0.694	0.754	0.749	0.626
NCI-H358	–	–	–	–	0.708	0.862	0.788	0.973	0.763	0.097	0.0915	0.103	0.108	0.0944	–	0.519	0.414	0.312
NCI-H520	–	1.11	1.01	1.02	0.602	0.767	1.03	0.87	0.861	0.469	0.385	0.382	0.304	0.303	–	–	–	–
NCI-H522	–	–	–	–	–	–	–	–	–	0.52	0.559	0.575	0.502	0.513	0.877	0.838	0.853	0.822
NCI-H650	–	–	–	–	1.1	1.36	0.961	1.11	1.22	0.665	0.639	0.665	0.712	0.596	0.706	0.993	0.849	0.579
NCI-H661	–	–	–	–	0.59	0.583	0.538	0.554	0.549	0.348	0.371	0.392	0.358	0.373	–	–	–	–
NCI-H1299	0.987	0.987	1.02	1.01	1.01	1.08	1.14	1.08	0.699	–	–	–	–	–	–	–	–	–
NCI-H1563	–	–	–	–	0.783	1.03	0.991	0.832	0.998	–	–	–	–	–	–	–	–	–
NCI-H1623	–	–	–	–	–	–	–	–	–	0.446	0.404	0.472	0.466	0.419	–	–	–	–
NCI-H1648	–	–	–	–	–	–	–	–	–	0.422	–	0.563	0.406	0.45	–	0.651	0.524	0.494
NCI-H1650	0.948	1.19	1.12	0.82	–	–	–	–	–	0.399	0.412	0.381	0.297	0.235	–	–	–	–
NCI-H1703	–	0.978	1.05	1.54	0.31	0.313	0.328	0.301	0.385	–	–	–	–	–	–	0.132	–	0.11
NCI-H2009	1.14	1.11	1.09	1.07	1.11	1.09	1.14	1.11	1.09	0.739	0.714	0.73	0.631	0.436	–	–	–	–
NCI-H2023	0.849	1.01	0.995	0.906	0.517	0.591	0.644	0.607	0.585	0.332	0.297	0.397	0.302	0.145	–	–	–	–
NCI-H2228	0.951	0.987	0.8	0.693	0.585	0.927	0.712	0.803	0.816	0.251	0.262	0.261	0.215	0.167	–	–	–	–
NCI-H2342	–	–	–	–	–	–	–	–	–	0.422	0.484	0.6	0.547	0.447	0.413	0.443	0.531	0.451
SK-LU-1	0.863	0.816	0.642	0.502	0.834	1.15	1.13	1.07	0.974	0.346	0.356	0.321	0.343	0.308	–	–	–	–
SK-MES-1	1.07	1.22	1.21	1.23	0.863	0.985	0.96	0.782	0.675	0.897	0.992	0.916	0.957	0.796	–	–	–	–
SW 900	–	–	–	–	–	–	–	–	–	0.657	0.749	0.824	0.636	0.453	0.632	0.534	0.513	0.369
SW 1573	0.807	0.993	0.901	1.01	0.726	0.974	0.758	0.624	0.583	0.175	0.208	0.211	0.165	0.207	–	–	–	–
UMC-11	0.31	0.343	0.267	0.158	0.668	0.73	1.01	1.2	0.793	0.183	0.195	0.204	0.203	0.194	–	–	–	–
